≈ marks a conversion by molar mass, not a printed value.
Columns and labels:
[1] = system: Escherichia coli ATCC 25922; assay: antimicrobial serial microdilution, E. coli; format: cell-based; settings: serial microdilution, 37 °C, 24 h
Description: (§1) The in vitro antifungal and antimicrobial activities were determined by testing the Schiff bases against the fungi Saccharomyces cerevisiae, Candida albicans, and Aspergillus niger and the bacteria Staphylococcus aureus, Enterococcus faecalis (Gram-positive), Pseudomonas aeruginosa, and Escherichia coli (Gram-negative).
(§2) The bacterial inoculum was prepared by emulsifying overnight colonies from an agar medium in broth (Mueller–Hinton broth). The suspensions were adjusted to a final organism density of 5 × 10^5 colony former units (cfu)/mL. […] The emulsifying of A. niger cultures was done by pouring 5 mL of saline and 0.1% of polysorbate 80 over the Petri dishes. Then, 100 µL of this suspension were diluted in 5 mL of saline and adjusted to an optical density of 0.1 at 530 nm. For S. cerevisiae, fresh exponential YPAD (yeast extract 1%, peptone 2%, adenine 0.004%, […]) cultures were adjusted to an optical density of 0.5 at 600 nm, and then diluted to the equivalent of 1 × 10^4 cells/mL (10^−3 dilution). Stock solutions of Schiff bases were prepared by dissolving them in DMSO at 10 mg/mL. […] The range of concentrations used was empirically selected for each organisms and the Schiff base. Drug sensitivities were assayed by serial dilutions in 96-well plates as previously described. A row with media and cells but without drug was the positive control. The blank was done by preparing a row with media and drugs, but without cells. Plates were fitted with a tight lid before incubation to prevent desiccation. […] The minimum bactericidal concentration (MBC) and fungicidal concentration (MFC) were determined by spreading 100 µL of culture from each well onto a plate (Mueller–Hinton agar for bacteria, Sabouraud dextrose agar for fungi except S. cerevisiae, and YPAD for S. cerevisiae).

[2] = system: Candida albicans ATCC 10231; assay: antimicrobial serial microdilution, C. albicans; format: cell-based; settings: serial microdilution, 35 °C, 48 h
Description: as §1, §2

RAW 264.7 cells = assay: cell viability, MTT dye assay; format: cell-based, murine; settings: RAW 264.7, exposure to 400 µM, 48 h
Description: The specificity and selectivity for the pathogen target is a key point for any potential drug.
The medium was renewed once a week. The viability was determined using MTT (thiazolyl blue tetrazolium bromide) dye assay as described previously for leishmanicidal activity assessment, with some variations. Here, 5 × 10^4 cells/well in a final volume of 100 µL were deposited into a 96-well plate in triplicate. Saponin (2 and 4 mg/mL) and untreated cells were used as the positive control and negative control, respectively. Schiff bases were dissolved in DMSO to obtain different serial concentrations (0.01–2000 µM). […] Cells were pelleted by centrifugation at 4400 rpm for 10 minutes and the media was removed. Next, 100 µL/well of DMSO were added and the absorbance at 570 nm was recorded. A reference wavelength of 630 nm was used for background subtraction.

[3] = system: S. cerevisiae sod1 mutant (BY4741); assay: growth inhibition (OD600) of sod1 mutant yeast, oxidative effect; format: cell-based, Saccharomyces cerevisiae
Description: (§3) Next, we wanted to evaluate the oxidative activity. To do this, drop test assays were performed with wild-type (W303 and BY4741 backgrounds) and sod1 (BY4741 background) yeast cells in the presence of 200 µg/mL of the analyzed Schiff bases (Figure 3). The SOD1 gene encodes superoxide dismutase 1, an enzyme with a major role in detoxifying ROS species generated during metabolism or because of environmental exposure. sod1 mutant cells are unprotected against oxidative agents, decreasing survival in their presence.
(§4) (A) Drop test of serial dilution of yeast cell cultures (wild type from genetic background W303, wild type from genetic background BY4741, and sod1 mutant from genetic background BY4741) exposed to Schiff bases at 200 µg/mL. A control without drug and with 2% DMSO are included.
as §2

[4] = system: S. cerevisiae wild-type (W303 and BY4741 backgrounds); assay: drop test, wild-type yeast; format: cell-based, Saccharomyces cerevisiae; settings: 200 µg/mL, 48 h, 25 °C
Description: Since the Schiff bases have a limited solubility in dimethyl sulfoxide (DMSO), first, we tested the toxicity of DMSO against the selected microorganism. […] Wild-type cells from W303 background seem to be more resistant, and sensitivity is observed at around 4% DMSO.
as §3, with “presence. […] Also, wild-type cells are shown as control, unaffected by the Schiff bases.” for “presence.”
(§5) For the drop test with S. cerevisiae, wild-type strain (background W303), and wild type and sod1 mutant cells (background BY4741) were grown overnight in YPAD media until an optical density of 0.5 at 600 nm was reached (equivalent to 1 × 10^7 cells/mL). Three serial dilutions were prepared and 5 µL of each was spotted onto a plate (approximately 1 × 10^5, 1 × 10^4, 1 × 10^3, and 1 × 10^2 cells/spot). YPAD plates were supplemented with 200 µg/mL of each Schiff base, and one plate supplemented with 2% DMSO and one plate with YPAD without any drug were used as controls. Plates were incubated at 25 °C for 24, 48, and 72 h.

[5] = system: Staphylococcus aureus ATCC 29213; assay: antimicrobial serial microdilution, S. aureus; format: cell-based; settings: Staphylococcus aureus, ATCC29213; serial microdilution, 37 °C, 24 h
Description: as §1, §2

[6] = system: S. cerevisiae sod1 mutant cells (background BY4741); assay: drop test, sod1 mutant yeast; format: cell-based, Saccharomyces cerevisiae; settings: 200 µg/mL, 48 h, 25 °C, compared to control
Description: as §3, with “presence. […] Also, wild-type cells are shown as control, unaffected by the Schiff bases.” for “presence.”
as §5

[7] = system: Enterococcus faecalis ATCC 29212; assay: antimicrobial serial microdilution, E. faecalis; format: cell-based; settings: Enterococcus faecalis, ATCC29212; serial microdilution, 37 °C, 24 h
Description: as §1, §2

[8] = system: S. cerevisiae wild type (BY4741); assay: growth inhibition (OD600) of wild-type yeast, oxidative effect; format: cell-based, Saccharomyces cerevisiae
Description: as §3, §4, §2

[9] = DPPH radical scavenging assay; format: biochemical; settings: statement in words
Description: This was used immediately. The experimental procedure was adapted from the literature. Briefly, in a 96-well plate, 100 µL of solution of DPPH (2, 2-diphenyl-1-picrylhydrazyl) radical (0.2 mM in methanol) was added to 100 µL of methanolic solutions of 3a–j, 4, or 5, prepared as serial two-fold dilutions from the stock solution. Standards were also prepared in the same concentrations.
The percentage of DPPH scavenging was then calculated by using the following formula: % DPPH scavenging=100∗Asample+DPPH−Asample blank/ADPPH−Asolvent

Cc1c(N=Cc2ccccc2O)c(=O)n(-c2ccccc2)n1C [Compound 3b, 4-(2-Hydroxybenzylideneamino)-1,5-dimethyl-2-phenyl-1H-pyrazol-3(2H)-one]
IC50 ([1]; Escherichia coli, ATCC25922): 12.1 µg/mL (≈ 39.4 µM) | MIC ([1]; Escherichia coli, ATCC25922): 49.8 ± 5 µg/mL (≈ 162 µM) | NIC E. coli ([1]; noninhibitory concentration): 2.8 ± 0.5 µg/mL | IC50 ([2]; Candida albicans, ATCC10231): 5.8 µg/mL (≈ 18.9 µM) | MIC ([2]; Candida albicans, ATCC10231): 13.2 ± 1.6 µg/mL (≈ 42.9 µM) | NIC C. albicans ([2]; noninhibitory concentration): 3.0 ± 2.2 µg/mL | % Live Cells (RAW 264.7 cells): 19.3 ± 0.2% | IC50 ([3]; Saccharomyces cerevisiae, read-out: IC50 sod1): 101 µg/mL (≈ 328 µM) | NIC sod1 ([3]; sod1 mutant BY4741, unit not given): 53.3 ± 0.1 | MIC sod1 ([3]; sod1 mutant BY4741, unit not given, in µg/mL): 164.1 ± 0.1 | effect on wild-type cells in drop test [4]: unaffected | MIC [5]: > 200 µg/mL | sensitivity of sod1 cells in drop test [6]: sensitive | MIC [7]: > 200 µg/mL | IC50 ([8]; Saccharomyces cerevisiae, unit inferred): 192 µg/mL (≈ 625 µM) | NIC Wt ([8]; unit not given): 178.0 ± 2.1 | MIC Wt ([8]; unit not given, in µg/mL): 208.2 ± 4.0 | antioxidant activity detected in the DPPH assay [9]: no significant antioxidant activity
